“And” between values parts separate entries of the source, which are not always exact repeats. Equal entries are not always repeated.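 These data come from cells grown in 96-well plates and exposed to compound for 48 hours at five concentrations. GI50 is the concentration that inhibits growth by half. At the TGI there is no net growth.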
Assays:
Assay in all cases: inhibition of tumour cell growth, NCI panel, 48 h
[1] = system: LOX IMVI melanoma
[2] = system: COLO 205 colon
[3] = system: UACC-62 melanoma
[4] = system: HCT-116 colon
[5] = system: SK-MEL-5 melanoma
[6] = system: A498 renal
[7] = system: HT29 colon
[8] = system: EKVX NSCLC
[9] = system: OVCAR-5 ovarian
[10] = system: SK-MEL-28 melanoma

Molecule `COc1ccncc1C#Cc1cncc(C(=O)Nc2ccc(CN3CCN(C)CC3)c(C(F)(F)F)c2)c1` has a GI50 [1] of 5.79 µM, a TGI [1] of 25.7 µM and a GI50 [2] of 11.2 µM. The TGI [2] was 64 µM, the GI50 [3] was 13.6 µM and the TGI [3] was > 100 µM. The GI50 [4] was 6.72 µM, the TGI [4] was > 100 µM and the GI50 [5] was 39 µM. For the same molecule, the TGI [5] was > 100 µM, the GI50 [6] was 17.4 µM and the TGI [6] was 79.5 µM. For the same molecule, the GI50 [7] was 9.33 µM, the TGI [7] was > 100 µM and the GI50 [8] was 24.7 µM. The TGI [8] was > 100 µM, the GI50 [9] was 23 µM and the TGI [9] was > 100 µM. For the same molecule, the GI50 [10] was 13.3 µM and the TGI [10] was > 100 µM.
In the case of `O=c1c2ccccc2sc2cccc(NCCCN3CCN(CCCNc4cccc5sc6ccccc6c(=O)c45)CC3)c12`, the TGI [1] was > 100 µM, the TGI [2] was > 100 µM and the TGI [3] was > 100 µM. For the same molecule, the TGI [4] was > 100 µM, the TGI [5] was > 100 µM and the TGI [6] was > 100 µM. The TGI [7] was > 100 µM, the TGI [8] was > 100 µM and the TGI [9] was > 100 µM. For the same molecule, the TGI [10] was > 100 µM.
With `CC(=O)c1cc2c(o1)C(=O)c1ccccc1C2=O` the GI50 [1] was 0.121 µM and 0.187 µM, the TGI [1] was 0.323 µM and 0.438 µM and the GI50 [2] was 0.192 µM and 1.72 µM. For the same molecule, the TGI [2] was 0.374 µM and 3.44 µM, the GI50 [3] was 0.229 µM and 0.178 µM and the TGI [3] was 0.476 µM and 0.335 µM. For the same molecule, the GI50 [4] was 0.226 µM and 0.267 µM, the TGI [4] was 0.544 µM and 0.805 µM and the GI50 [5] was 0.169 µM and 0.173 µM. The TGI [5] was 0.31 µM and 0.316 µM, the GI50 [6] was 0.682 µM and 1.37 µM and the TGI [6] was 1.48 µM and 2.69 µM. For the same molecule, the GI50 [7] was 0.226 µM and 0.276 µM, the TGI [7] was 0.529 µM and 0.756 µM and the GI50 [8] was 1.19 µM and 1.55 µM. The TGI [8] was 2.96 µM and 3.41 µM, the GI50 [9] was 0.181 µM and 0.186 µM and the TGI [9] was 0.346 µM and 0.345 µM. For the same molecule, the GI50 [10] was 0.222 µM and 0.292 µM and the TGI [10] was 0.437 µM and 0.689 µM.
`O=C1CC(C[C@H](O)C2CCCCC2O)CC(=O)N1Cc1ccccc1` (some centres undefined) was tested, and the TGI [1] was > 100 µM, the TGI [2] was > 100 µM and the TGI [3] was > 100 µM. For the same molecule, the TGI [4] was > 100 µM, the TGI [5] was > 100 µM and the TGI [6] was > 100 µM. For the same molecule, the TGI [7] was > 100 µM, the TGI [8] was > 100 µM and the TGI [9] was > 100 µM. For the same molecule, the TGI [10] was > 100 µM.
In the case of `O=c1cc2oc3cc(O)c(O)cc3c(-c3ccccc3O)c-2cc1O`, the GI50 [1] was 4.84 µM, the TGI [1] was 34.2 µM and the GI50 [2] was 36.3 µM. The TGI [2] was > 100 µM, the GI50 [3] was 6.25 µM and the TGI [3] was 86 µM. The GI50 [4] was 3.81 µM, the TGI [4] was 21.9 µM and the GI50 [5] was 19.4 µM. The TGI [5] was > 100 µM, the GI50 [6] was 1.44 µM and the TGI [6] was 8.36 µM. For the same molecule, the GI50 [7] was 44.4 µM, the TGI [7] was > 100 µM and the GI50 [8] was 29.2 µM. The TGI [8] was > 100 µM, the GI50 [9] was 44.6 µM and the TGI [9] was > 100 µM. For the same molecule, the GI50 [10] was 37.2 µM and the TGI [10] was > 100 µM.
Work on `Cn1cnc([N+](=O)[O-])c1S(=O)(=O)Oc1ccccc1` yielded a GI50 [1] of 3.3 µM, a TGI [1] of 9.9 µM and a GI50 [2] of 1.68 µM. It also gave a TGI [2] of 3.29 µM, a GI50 [3] of 14.9 µM and a TGI [3] of 32.2 µM. It also gave a GI50 [4] of 5.37 µM, a TGI [4] of 13.2 µM and a GI50 [5] of 17.3 µM. For the same molecule, the TGI [5] was 34.2 µM, the GI50 [6] was 16.8 µM and the TGI [6] was 38.1 µM. It also gave a GI50 [7] of 3.14 µM, a TGI [7] of 8.21 µM and a GI50 [8] of 17 µM. For the same molecule, the TGI [8] was 41.2 µM, the GI50 [9] was 23.9 µM and the TGI [9] was 74.9 µM. For the same molecule, the GI50 [10] was 8.61 µM and the TGI [10] was 32.2 µM.
With `CC1(C)OCCn2c1nc1c(N3CCOCC3)nc(-c3cnc(N)nc3)nc12` the GI50 [1] was 0.265 µM, the TGI [1] was > 27.4 µM and the GI50 [2] was 0.217 µM. For the same molecule, the TGI [2] was 5.95 µM, the GI50 [3] was 0.185 µM and the TGI [3] was 1.42 µM. The GI50 [4] was 0.337 µM, the TGI [4] was > 100 µM and the GI50 [5] was 0.346 µM. The TGI [5] was 2.9 µM, the GI50 [6] was 0.133 µM and the TGI [6] was 0.627 µM. The GI50 [7] was 0.23 µM, the TGI [7] was > 100 µM and the GI50 [8] was 0.16 µM. For the same molecule, the TGI [8] was 2.64 µM, the GI50 [9] was 0.249 µM and the TGI [9] was > 100 µM. For the same molecule, the GI50 [10] was 0.231 µM and the TGI [10] was 4.08 µM.
For `C=CC(=O)N1CCC(C2CCNc3c(C(N)=O)c(-c4ccc(Oc5ccccc5)cc4)nn32)CC1` (centres undefined), the GI50 [1] was 13.3 µM, the TGI [1] was 29.4 µM and the GI50 [2] was 19.1 µM. The TGI [2] was 40.2 µM, the GI50 [3] was 10.6 µM and the TGI [3] was 27 µM. The GI50 [4] was 17.6 µM, the TGI [4] was 39.5 µM and the GI50 [5] was 10.6 µM. For the same molecule, the TGI [5] was 22.9 µM, the GI50 [6] was 2.33 µM and the TGI [6] was 7.19 µM. The GI50 [7] was 16.6 µM, the TGI [7] was 55.8 µM and the GI50 [8] was 3.49 µM. For the same molecule, the TGI [8] was 42 µM, the GI50 [9] was 31.2 µM and the TGI [9] was > 100 µM. The GI50 [10] was 18.7 µM and the TGI [10] was 45.1 µM.
In the case of `COC1[C@@H](OC(C)=O)[C@@H](NC(=O)C(Cl)(Cl)Cl)C(I)[C@@H](N2C(=O)c3ccccc3C2=O)[C@H]1OC` (some centres undefined), the TGI [1] was > 100 µM, the TGI [2] was > 100 µM and the TGI [3] was > 100 µM. For the same molecule, the TGI [4] was > 100 µM, the TGI [5] was > 100 µM and the TGI [6] was > 100 µM. For the same molecule, the TGI [7] was > 100 µM, the TGI [8] was > 100 µM and the TGI [9] was > 100 µM. For the same molecule, the TGI [10] was > 100 µM.
With `O=C(c1ccc(F)c(F)c1Nc1ccc(I)cc1F)N1CC(O)([C@@H]2CCCCN2)C1` the GI50 [1] was 0.0321 µM and 0.0191 µM, the TGI [1] was 2.15 µM and 1.7 µM and the GI50 [2] was < 0.01 µM and 0.00238 µM. The TGI [2] was 4.06 µM, the GI50 [3] was < 0.01 µM and 0.00339 µM and the TGI [3] was < 0.0158 µM and 0.0384 µM. The GI50 [4] was < 0.0295 µM and 0.0851 µM, the TGI [4] was 11.9 µM and > 10 µM and the TGI [5] was 8.56 µM and > 10 µM. The GI50 [6] was < 0.0194 µM and 0.0422 µM, the TGI [6] was 0.134 µM and 0.294 µM and the GI50 [7] was < 0.01 µM and 0.00367 µM. For the same molecule, the TGI [7] was 11 µM and > 10 µM, the GI50 [8] was 0.308 µM and the TGI [8] was > 10 µM. The GI50 [9] was < 0.0277 µM and 0.0403 µM, the TGI [9] was 15.1 µM and > 10 µM and the GI50 [10] was < 0.01 µM. The TGI [10] was 0.594 µM.
With `Cc1ccc(Cl)cc1Nc1nc(C(F)(F)F)ccc1C(=O)N1CCN(c2cccc(Cl)c2)CC1` the GI50 [1] was > 100 µM, the TGI [1] was > 100 µM and the GI50 [2] was > 100 µM. The TGI [2] was > 100 µM, the GI50 [3] was 69.4 µM and the TGI [3] was > 100 µM. For the same molecule, the GI50 [4] was 37.9 µM, the TGI [4] was > 100 µM and the GI50 [5] was > 100 µM. The TGI [5] was > 100 µM, the GI50 [6] was 65.6 µM and the TGI [6] was > 100 µM. The GI50 [7] was > 100 µM, the TGI [7] was > 100 µM and the GI50 [8] was 86.4 µM. The TGI [8] was > 100 µM, the GI50 [9] was > 100 µM and the TGI [9] was > 100 µM. The GI50 [10] was > 100 µM and the TGI [10] was > 100 µM.
In the case of `CCCCCCC[CH2][Sn]1([CH2]CCCCCCC)[O]C(=O)c2cccnc2[S]1`, the GI50 [1] was > 100 µM, the TGI [1] was > 100 µM and the GI50 [2] was > 100 µM. The TGI [2] was > 100 µM, the GI50 [3] was > 100 µM and the TGI [3] was > 100 µM. The GI50 [4] was > 100 µM, the TGI [4] was > 100 µM and the GI50 [5] was > 100 µM. The TGI [5] was > 100 µM, the GI50 [6] was > 100 µM and the TGI [6] was > 100 µM. For the same molecule, the GI50 [7] was > 100 µM, the TGI [7] was > 100 µM and the GI50 [8] was > 100 µM. The TGI [8] was > 100 µM, the GI50 [9] was > 100 µM and the TGI [9] was > 100 µM. For the same molecule, the GI50 [10] was > 100 µM and the TGI [10] was > 100 µM.
For `O=C(c1ccc(Cl)cc1)c1cnc(Nc2ccccc2Cl)s1`, the TGI [1] was > 100 µM, the TGI [2] was > 100 µM and the TGI [3] was 66.4 µM. It also gave a TGI [4] of 41.7 µM, a TGI [5] of 55.2 µM and a TGI [6] of 27.3 µM. The TGI [7] was > 100 µM, the TGI [8] was 50.5 µM and the TGI [9] was 95.5 µM. It also gave a TGI [10] of 23.4 µM.
With `Cc1c(Cl)cccc1N1C(=O)C(Cl)=C(Cl)C1=O` the TGI [1] was > 100 µM, the TGI [2] was > 100 µM and the TGI [3] was > 100 µM. For the same molecule, the TGI [4] was > 100 µM, the TGI [5] was > 100 µM and the TGI [6] was > 100 µM. The TGI [7] was > 100 µM, the TGI [8] was > 100 µM and the TGI [9] was > 100 µM. The TGI [10] was > 100 µM.
In the case of `O=C(CC(O)(C(F)(F)F)C(F)(F)F)c1cc(CC(=O)C(O)(C(F)(F)F)C(F)(F)F)cc(CC(=O)C(O)(C(F)(F)F)C(F)(F)F)c1`, the TGI [1] was 2.81 µM, the TGI [2] was 3.06 µM and the TGI [3] was 4.11 µM. For the same molecule, the TGI [4] was 2.56 µM, the TGI [5] was 3.04 µM and the TGI [6] was 5.43 µM. The TGI [7] was 4.28 µM, the TGI [8] was > 9.06 µM and the TGI [9] was > 9.25 µM. The TGI [10] was > 5.88 µM.
